According to US6545002B1 (University of Virginia Patent Foundation, priority 1999, dated 2003):
Where two headings read alike, the source gives them in different places.

How the values were obtained:
human A3 receptors (hA3) [1] = molecular target: T1, human A3 receptors (hA3) (Homo sapiens, UniProt P0DMS8); assay: Displacement of [125I]ABA binding at human A3 receptors expressed in HEK-293 cells; settings: Table 1; [125I]ABA, HEK-293; read-out: hA3 Ki or IC50
T1 construct: expressed in transfected cells; host or cells: HEK-293
T1 sequence (P0DMS8 1-318): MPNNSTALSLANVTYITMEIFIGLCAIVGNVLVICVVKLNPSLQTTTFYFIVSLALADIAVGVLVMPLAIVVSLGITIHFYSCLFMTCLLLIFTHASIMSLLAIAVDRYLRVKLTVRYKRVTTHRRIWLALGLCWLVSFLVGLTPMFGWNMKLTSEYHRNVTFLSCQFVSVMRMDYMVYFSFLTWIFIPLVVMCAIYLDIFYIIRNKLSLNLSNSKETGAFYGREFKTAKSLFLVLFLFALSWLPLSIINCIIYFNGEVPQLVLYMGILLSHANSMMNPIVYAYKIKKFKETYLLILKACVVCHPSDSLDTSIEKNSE

A3 receptors (r) = molecular target: T2, A3 receptors (r) (Rattus norvegicus, UniProt P28647); assay: Binding at rat A3 receptors, values marked (r) in Table 1
T2 sequence (P28647 1-320): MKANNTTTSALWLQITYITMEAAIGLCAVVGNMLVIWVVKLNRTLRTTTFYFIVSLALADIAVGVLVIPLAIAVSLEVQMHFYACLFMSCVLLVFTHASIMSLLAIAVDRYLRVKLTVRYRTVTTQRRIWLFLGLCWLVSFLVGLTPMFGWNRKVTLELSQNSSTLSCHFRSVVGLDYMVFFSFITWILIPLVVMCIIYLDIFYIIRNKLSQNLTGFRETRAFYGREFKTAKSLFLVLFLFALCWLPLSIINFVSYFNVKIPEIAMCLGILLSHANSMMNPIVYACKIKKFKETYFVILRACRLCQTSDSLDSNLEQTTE

[2] = molecular target: T3, recombinant human A1 receptors (hA1) (Homo sapiens, UniProt P30542); assay: Radioligand binding ([3H]CPX) at recombinant human A1 receptors in HEK-293 cells
T3 sequence (P30542 1-326): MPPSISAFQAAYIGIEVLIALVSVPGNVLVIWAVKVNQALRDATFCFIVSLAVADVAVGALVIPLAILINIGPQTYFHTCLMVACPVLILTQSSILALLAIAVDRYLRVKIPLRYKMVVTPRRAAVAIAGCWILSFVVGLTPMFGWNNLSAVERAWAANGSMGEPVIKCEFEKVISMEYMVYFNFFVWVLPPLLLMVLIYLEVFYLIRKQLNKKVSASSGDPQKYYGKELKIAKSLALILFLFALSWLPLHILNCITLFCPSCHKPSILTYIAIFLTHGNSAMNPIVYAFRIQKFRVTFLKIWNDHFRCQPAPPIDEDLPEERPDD

rat A1 receptors (rA1) = molecular target: T4, rat A1 receptors (rA1) (Rattus norvegicus, UniProt P25099); assay: Displacement of [3H]R-PIA binding in rat brain (cerebral cortical) membranes
T4 construct: to A1 receptors from rat cerebral cortical membranes; from tissue; host or cells: rat cerebral cortical (brain) membranes
T4 sequence (P25099 1-326): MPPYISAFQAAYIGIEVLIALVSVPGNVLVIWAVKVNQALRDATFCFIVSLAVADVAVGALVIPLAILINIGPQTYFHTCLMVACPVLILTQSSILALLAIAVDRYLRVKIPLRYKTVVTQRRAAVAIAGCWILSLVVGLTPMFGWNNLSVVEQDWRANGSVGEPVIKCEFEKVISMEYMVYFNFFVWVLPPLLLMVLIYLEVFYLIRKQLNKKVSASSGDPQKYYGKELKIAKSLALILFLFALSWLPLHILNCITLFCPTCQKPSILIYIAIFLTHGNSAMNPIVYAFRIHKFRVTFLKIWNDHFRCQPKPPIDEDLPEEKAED

rat A2A receptors (rA2A) = molecular target: T5, rat A2A receptors (rA2A) (Rattus norvegicus, UniProt P30543); assay: Displacement of [3H]CGS 21680 binding in rat striatal membranes
T5 construct: to A2A receptors from rat striatal membranes was performed as described; from tissue; host or cells: rat striatal membranes
T5 sequence (P30543 whole entry): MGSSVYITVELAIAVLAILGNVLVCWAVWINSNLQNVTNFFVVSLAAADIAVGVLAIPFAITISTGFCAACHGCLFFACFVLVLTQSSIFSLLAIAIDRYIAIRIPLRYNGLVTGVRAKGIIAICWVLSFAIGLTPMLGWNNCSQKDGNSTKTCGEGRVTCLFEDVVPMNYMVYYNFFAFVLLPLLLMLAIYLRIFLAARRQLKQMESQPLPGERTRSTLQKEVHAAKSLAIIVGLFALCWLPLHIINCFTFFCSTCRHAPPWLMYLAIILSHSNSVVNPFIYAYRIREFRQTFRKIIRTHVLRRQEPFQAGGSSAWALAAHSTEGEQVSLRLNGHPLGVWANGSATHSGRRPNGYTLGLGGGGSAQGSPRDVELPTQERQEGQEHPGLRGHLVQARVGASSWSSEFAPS

[3] = molecular target: T6, human A2B receptors (hA2B) (Homo sapiens, UniProt P29275); assay: Radioligand binding ([125I]ABOPX / [3H]ZM241385) at human A2B receptors expressed in HEK-293 cells; settings: for hA1/hA2B / hA2A/hA2B / hA3/hA2B / rA1/hA2B: Ki ratio
T6 construct: expressed in transfected cells; host or cells: HEK-293 (HEK-A2B, G418-selected)
T6 sequence (P29275 1-332): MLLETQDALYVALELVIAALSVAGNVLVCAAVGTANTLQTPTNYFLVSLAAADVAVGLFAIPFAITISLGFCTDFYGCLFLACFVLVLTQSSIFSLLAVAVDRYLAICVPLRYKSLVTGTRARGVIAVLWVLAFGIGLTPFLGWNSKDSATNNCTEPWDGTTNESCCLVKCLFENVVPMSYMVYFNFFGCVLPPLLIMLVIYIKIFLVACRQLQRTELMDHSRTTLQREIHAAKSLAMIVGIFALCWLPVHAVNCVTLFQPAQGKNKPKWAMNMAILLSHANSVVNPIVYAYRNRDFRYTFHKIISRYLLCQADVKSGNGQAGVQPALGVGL

[4] = molecular target: recombinant human A2A receptors (hA2A) (Homo sapiens, UniProt P29274); assay: Radioligand binding (125I-ZM241385) at recombinant human A2A receptors in HEK-293 cells
Sequence of recombinant human A2A receptors (hA2A) (P29274 whole entry): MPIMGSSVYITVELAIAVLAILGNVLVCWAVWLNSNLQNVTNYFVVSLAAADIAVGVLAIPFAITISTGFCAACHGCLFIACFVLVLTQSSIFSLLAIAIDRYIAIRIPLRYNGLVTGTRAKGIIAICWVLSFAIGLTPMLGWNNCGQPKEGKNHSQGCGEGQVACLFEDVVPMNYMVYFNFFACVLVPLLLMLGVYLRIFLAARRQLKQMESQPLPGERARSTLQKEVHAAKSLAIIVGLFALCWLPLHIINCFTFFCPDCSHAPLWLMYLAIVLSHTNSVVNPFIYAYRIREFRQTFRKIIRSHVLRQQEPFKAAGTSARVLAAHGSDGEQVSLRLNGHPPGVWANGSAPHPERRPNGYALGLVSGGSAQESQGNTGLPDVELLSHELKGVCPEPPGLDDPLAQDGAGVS
Method: All non-radioactive compounds were initially dissolved in DMSO, and diluted with buffer to the final concentration, where the amount of DMSO never exceeded 2%. Incubations were terminated by rapid filtration over Whatman GF/B filters, using a Brandell cell harvester (Brandell, Gaithersburg, Md.). The tubes were rinsed three times with 3 mL buffer each.
At least six different concentrations of competitor, spanning 3 orders of magnitude adjusted appropriately for the IC50 of each compound, were used. IC50 values, calculated with the nonlinear regression method implemented in (Graph-Pad Prism, San Diego, Calif.), were converted to apparent Ki values as described.
The potency of the xanthine derivatives at human A2B receptors was evaluated using two binding assays. […] In order to determine selectivity, the xanthines were evaluated using standard binding assays at A1, A2A, and A3 receptors.

human A3 receptors (hA3) [5] = molecular target: T1, human A3 receptors (hA3); assay: Displacement of [125I]AB-MECA binding at human A3 receptors expressed in HEK-293 cells (Table 4)
[6] = read-out: hA1 Ki, values marked (h), Table 1, recombinant human A1, HEK 293
[7] = Table 1, [3H]R-PIA, rat brain membranes, read-out: rA1 Ki or IC50
[8] = Table 1, [3H]CGS 21680, rat striatal membranes, read-out: rA2A Ki or IC50
[9] = Table 1, [125I]ABOPX, HEK-293, read-out: hA2B Ki or IC50
[10] = read-out: hA2A Ki, values marked (h), Table 1, recombinant human A2A, HEK 293
[11] = Table 4, unmarked value, first of two binding assays, read-out: hA2B Ki
[12] = read-out: hA1 Ki, values marked (h)^a, Table 4, vs [3H]CPX, HEK-293
[13] = read-out: hA2A Ki, values marked (h)^a, Table 4, vs [125I]ZM241385, HEK-293
[14] = read-out: Ki value at human A2B receptors

Row | Compound | Ki (rat A1 receptors (rA1); Table 4, read-out: rA1 Ki) [nM] | Ki (rat A2A receptors (rA2A); Table 4, read-out: rA2A Ki) [nM] | rA1/hA2B ([3]; Table 4) | Ki [3, 11] [nM] | Ki (human A3 receptors (hA3) [5]) [nM] | Ki [3, 14] [nM] | also measured
1 | CCCn1c(=O)c2[nH]c(-c3ccc(OCC(=O)O)cc3)nc2n(CCC)c1=O [Compound 4a, 8-[4-[[[carboxy]methyl]oxy]phenyl]-1,3-dipropylxanthine] |  |  |  |  |  |  | Ki (human A3 receptors (hA3) [1]): 3910 nM; Ki (A3 receptors (r)): 75700 nM; Ki [2, 6]: 175 ± 57 nM
2 | C=CCn1c(=O)c2[nH]c(-c3ccc(OCC(=O)O)cc3)nc2n(CC=C)c1=O [Compound 5] |  |  |  |  |  |  | Ki (rat A1 receptors (rA1); [7]): 756 ± 147 nM; Ki (rat A2A receptors (rA2A); [8]): 4290 nM; hA1/hA2B ([3]; Table 1): 12; hA2A/hA2B ([3]; Table 1): 17; hA3/hA2B ([3]; Table 1): 5.8; Ki [3, 9]: 141 ± 29 nM; Ki (human A3 receptors (hA3) [1]): 816 ± 91 nM; Ki (A3 receptors (r)): 173000 nM; Ki [2, 6]: 1660 nM; Ki [4, 10]: 2370 nM
3 | CCCCn1c(=O)c2[nH]c(-c3ccc(OCC(=O)O)cc3)nc2n(CCCC)c1=O [Compound 6] |  |  |  |  |  |  | Ki (rat A1 receptors (rA1); [7]): 43.1 ± 9.9 nM; Ki (rat A2A receptors (rA2A); [8]): 874 ± 107 nM; hA1/hA2B ([3]; Table 1): 3.1; hA2A/hA2B ([3]; Table 1): 53; hA3/hA2B ([3]; Table 1): 1.9; Ki [3, 9]: 48 ± 16.9 nM; Ki (human A3 receptors (hA3) [1]): 90.3 ± 14.2 nM; Ki (A3 receptors (r)): 27500 nM; Ki [2, 6]: 149 ± 83 nM; Ki [4, 10]: 2540 nM
4 | CCCn1c(=O)c2[nH]c(-c3ccc(OCC(=O)NNC(=O)CCC(=O)O)cc3)nc2n(CCC)c1=O [Compound 42, 8-[4-[(Carboxymethyl)oxy]phenyl]-1,3-di-(n-propyl)xanthine N-[(3-Carboxy)-n-propionyl]hydrazide] | 73.3 ± 22 | 174 ± 32 | 1.6 | 116 ± 10 | 173 ± 27 |  | Ki ([3]; Table 4, footnote a: [125I]-ABOPX, read-out: hA2B Ki (value marked ^a) (converted)): 97.8 nM; Ki [2, 12]: 219 nM; Ki [4, 13]: 795 nM
5 | CCCn1c(=O)c2[nH]c(-c3ccc(OCC(=O)NN4C(=O)CCC4=O)cc3)nc2n(CCC)c1=O [Compound 43, 8-[4-[(Carboxymethyl)oxy]phenyl]-1,3-di-(n-propyl)xanthine N,N-Succinylhydrazide] | 55.9 ± 25.1 | 805 ± 44 | 3.0 | 18.6 ± 6.1 | 766 ± 176 |  | Ki [2, 12]: 75.2 nM; Ki [4, 13]: 27.2 nM
6 | CCCn1c(=O)c2[nH]c(-c3ccc(OCC(=O)NN4C(=O)C5=C(CCCC5)C4=O)cc3)nc2n(CCC)c1=O [Compound 56, 8-[4-[(Carboxymethyl)oxy]phenyl]-1,3-di-(n-propyl)xanthine N,N-(3,4,5,6-Tetrahydrophthaloyl)hydrazide] | 61.9 ± 11.3 | 415 ± 157 | 1.7 | 35.8 ± 0.7 | 245 ± 45 |  | 
7 | CCCn1c(=O)c2[nH]c(-c3ccc(OCC(=O)NNC(=O)[C@H](CCC(=O)O)NC(=O)C(F)(F)F)cc3)nc2n(CCC)c1=O [Compound 60, 8-[4-[(Carboxymethyl)oxy]phenyl]-1,3-di-(n-propyl)xanthine N-[(4-Carboxy-(2S)-Trifluoroacetamido)-n-butanoyl]hydrazide] | 70.8 ± 30.9 | 872 ± 412 | 2.9 | 24.8 ± 7.3 | 430 ± 44 | 25 | 
8 | CCCn1c(=O)c2[nH]c(-c3ccc(OCC(=O)NN4C(=O)CC[C@H](NC(=O)C(F)(F)F)C4=O)cc3)nc2n(CCC)c1=O [Compound 61] | 53.5 ± 6.5 | 440 ± 106 | 4.1 |  | 726 ± 245 | 13 | Ki [2]: 149 nM; Ki [4]: 178 nM

Continued, in another order:

Row | Ki (rat A1 receptors (rA1); Table 4, read-out: rA1 Ki) [nM] | Ki (rat A2A receptors (rA2A); Table 4, read-out: rA2A Ki) [nM] | rA1/hA2B ([3]; Table 4) | Ki [3, 11] [nM] | Ki (human A3 receptors (hA3) [5]) [nM] | Ki [3, 14] [nM] | Compound | also measured
9 | 36.4 ± 6.2 | 689 ± 477 | 3.6 |  | 370 ± 190 | 10 | CCCn1c(=O)c2[nH]c(-c3ccc(OCC(=O)NN4C(=O)[C@H]5CC=CC[C@H]5C4=O)cc3)nc2n(CCC)c1=O [Compound 52, 8-[4-[(Carboxymethyl)oxy]phenyl]-1,3-di-(n-propyl)xanthine N,N-(cis-1,2,3,6-Tetrahydrophthaloyl)hydrazide] | Ki [2]: 129 nM; Ki [4]: 301 nM
10 | 41.3 ± 6.4 | 1160 ± 337 | 1.9 | 21.5 ± 1.5 | 309 ± 88 |  | CCCn1c(=O)c2[nH]c(-c3ccc(OCC(=O)NN4C(=O)C5=C(CCC5)C4=O)cc3)nc2n(CCC)c1=O [Compound 54, 8-[4-[(Carboxymethyl)oxy]phenyl]-1,3-di-(n-propyl)xanthine N,N-(1-Cyclopentene-1,2-dicarbonyl)hydrazide] | 
11 | 47.2 ± 6.8 | 422 ± 136 | 2.7 | 17.3 ± 6.3 | 438 ± 109 | 17 | CCCn1c(=O)c2[nH]c(-c3ccc(OCC(=O)NNC(=O)C4=C(C(=O)O)CCCC4)cc3)nc2n(CCC)c1=O [Compound 55, 8-[4-[(Carboxymethyl)oxy]phenyl]-1,3-di-(n-propyl)xanthine N-[2-((1-Carboxy)-1-cyclohexene)-carbonyl]hydrazide] | Ki [2, 12]: 145 nM; Ki [4, 13]: 95.6 nM
12 | 14 ± 2.3 | 135 ± 39 | 0.6 | 22 ± 5.5 | 200 ± 45 |  | CCCn1c(=O)c2[nH]c(-c3ccc(OCC(=O)NN4C(=O)CCCC4=O)cc3)nc2n(CCC)c1=O [Compound 58, 8-[4-[(Carboxymethyl)oxy]phenyl]-1,3-di-(n-propyl)xanthine N,N-Glutarylhydrazide] | 
13 | 41.2 ± 16.6 | 164 ± 61 | 1.6 | 25.7 ± 5.5 | 290 ± 88 |  | CCCn1c(=O)c2[nH]c(-c3ccc(OCC(=O)NN4C(=O)CC(O)CC4=O)cc3)nc2n(CCC)c1=O [Compound 59, 8-[4-[(Carboxymethyl)oxy]phenyl]-1,3-di-(n-propyl)xanthine N,N-(3-Hydroxy)glutarylhydrazide] | 
14 | 36 ± 6.6 | 609 ± 95 | 3.3 | 10.8 ± 5 | 323 ± 47 | 11 | CCCn1c(=O)c2[nH]c(-c3ccc(OCC(=O)NNC(=O)CNC(=O)CNC(=O)OCc4ccccc4)cc3)nc2n(CCC)c1=O [Compound 64, 8-[4-[(Carboxymethyl)oxy]phenyl]-1,3-di-(n-propyl)xanthine N-(N-Benzyloxycarbonyl-glycylglycinyl)hydrazide] | Ki [2, 12]: 200 ± 22 nM; Ki [4, 13]: 830 ± 84 nM
